The NIST ThermoML archive (doi:10.1021/acs.jced.7b01053)
Where “and” joins values, the source holds several entries; their conditions need not be identical. Identical values can stand only once. ± gives the expanded uncertainty stated by the source.

Assay: mn = molality of the nth substance listed, in mol/kg
Settings: 293 K, 100 kPa, Liquid, Alternating current cell with electrodes

CCCCC(=O)[O-].C[NH2+]CCO [2-hydroxy-N-methylethanaminium pentanoate] + O
Settings	electrical conductivity [S/m]
m1 = 0.01138	0.049 ± 0.01
m1 = 0.01396	0.062 ± 0.011
m1 = 0.02431	0.098 ± 0.009
m1 = 0.02742	0.113 ± 0.009
m1 = 0.03923	0.149 ± 0.014
m1 = 0.0421	0.165 ± 0.011
m1 = 0.05224	0.191 ± 0.013
m1 = 0.05579	0.209 ± 0.023
m1 = 0.0607	0.269 ± 0.017
m1 = 0.06705	0.238 ± 0.015
m1 = 0.08075	0.293 ± 0.023
m1 = 0.08328	0.31 ± 0.024
m1 = 0.09553	0.335 ± 0.022
m1 = 0.09605	0.33 ± 0.022
m1 = 0.1092	0.375 ± 0.027
m1 = 0.1095	0.408 ± 0.029
m1 = 0.1224	0.445 ± 0.032
m1 = 0.124	0.416 ± 0.029
m1 = 0.1358	0.479 ± 0.035
m1 = 0.1372	0.449 ± 0.032
m1 = 0.1484	0.513 ± 0.046
m1 = 0.1505	0.485 ± 0.043
m1 = 0.1608	0.544 ± 0.055
m1 = 0.1632	0.498 ± 0.037
m1 = 0.1727	0.572 ± 0.044
m1 = 0.1759	0.527 ± 0.039
m1 = 0.1844	0.597 ± 0.046
m1 = 0.1879	0.551 ± 0.042
m1 = 0.1947	0.612 ± 0.048
m1 = 0.1999	0.578 ± 0.044
m1 = 0.2059	0.635 ± 0.05
m1 = 0.2113	0.602 ± 0.047
m1 = 0.2164	0.656 ± 0.052
m1 = 0.2226	0.62 ± 0.048
m1 = 0.226	0.677 ± 0.055
m1 = 0.2329	0.642 ± 0.051
m1 = 0.2359	0.697 ± 0.057
m1 = 0.2427	0.663 ± 0.053
m1 = 0.2451	0.709 ± 0.058
m1 = 0.2523	0.682 ± 0.055
m1 = 0.2541	0.727 ± 0.06
m1 = 0.262	0.701 ± 0.057
m1 = 0.2625	0.744 ± 0.062
m1 = 0.2703	0.76 ± 0.064
m1 = 0.2709	0.717 ± 0.059
m1 = 0.2783	0.776 ± 0.067
m1 = 0.2797	0.735 ± 0.062
m1 = 0.2853	0.79 ± 0.068
m1 = 0.2882	0.75 ± 0.063
m1 = 0.2929	0.804 ± 0.069
m1 = 0.2964	0.766 ± 0.065
m1 = 0.2998	0.818 ± 0.071
m1 = 0.304	0.781 ± 0.067
m1 = 0.3065	0.83 ± 0.073
m1 = 0.3114	0.794 ± 0.068
m1 = 0.3129	0.842 ± 0.074
m1 = 0.3184	0.808 ± 0.07
m1 = 0.3191	0.853 ± 0.076
m1 = 0.3249	0.868 ± 0.077
m1 = 0.3255	0.819 ± 0.071
m1 = 0.3307	0.88 ± 0.08
m1 = 0.3317	0.834 ± 0.074
m1 = 0.336	0.893 ± 0.091
m1 = 0.3378	0.847 ± 0.084
m1 = 0.3413	1.04 ± 0.1
m1 = 0.3437	0.858 ± 0.083
m1 = 0.3493	0.87 ± 0.078
m1 = 0.3546	0.882 ± 0.079

CCC(=O)[O-].C[NH2+]CCO [2-hydroxy-N-methylethanaminium propionate] + O
Settings	electrical conductivity [S/m]
m1 = 0.01487	0.066 ± 0.009
m1 = 0.0155	0.073 ± 0.008
m1 = 0.03159	0.133 ± 0.01
m1 = 0.03183	0.139 ± 0.011
m1 = 0.04881	0.195 ± 0.014
m1 = 0.0489	0.202 ± 0.014
m1 = 0.06492	0.266 ± 0.018
m1 = 0.06527	0.277 ± 0.019
m1 = 0.08046	0.329 ± 0.022
m1 = 0.08214	0.323 ± 0.022
m1 = 0.09748	0.384 ± 0.027
m1 = 0.09889	0.378 ± 0.026
m1 = 0.1136	0.436 ± 0.031
m1 = 0.1159	0.427 ± 0.031
m1 = 0.1305	0.487 ± 0.036
m1 = 0.1324	0.476 ± 0.035
m1 = 0.1464	0.536 ± 0.041
m1 = 0.1495	0.523 ± 0.04
m1 = 0.1622	0.604 ± 0.053
m1 = 0.1651	0.568 ± 0.05
m1 = 0.1776	0.648 ± 0.052
m1 = 0.1814	0.613 ± 0.048
m1 = 0.1935	0.69 ± 0.056
m1 = 0.1966	0.654 ± 0.052
m1 = 0.2081	0.727 ± 0.061
m1 = 0.2121	0.694 ± 0.057
m1 = 0.223	0.764 ± 0.065
m1 = 0.2264	0.702 ± 0.058
m1 = 0.237	0.798 ± 0.069
m1 = 0.2408	0.721 ± 0.06
m1 = 0.25	0.829 ± 0.072
m1 = 0.2542	0.723 ± 0.061
m1 = 0.2632	0.872 ± 0.079
m1 = 0.2677	0.786 ± 0.068
m1 = 0.2756	0.908 ± 0.083
m1 = 0.28	0.814 ± 0.071
m1 = 0.2879	0.933 ± 0.086
m1 = 0.2922	0.834 ± 0.073
m1 = 0.2994	0.957 ± 0.089
m1 = 0.3036	0.86 ± 0.077
m1 = 0.3106	0.98 ± 0.093
m1 = 0.3149	0.906 ± 0.082
m1 = 0.3211	1 ± 0.095
m1 = 0.3255	0.923 ± 0.085
m1 = 0.3317	1.02 ± 0.098
m1 = 0.3357	0.946 ± 0.088
m1 = 0.3415	1.04 ± 0.1
m1 = 0.3454	0.967 ± 0.091
m1 = 0.3511	1.06 ± 0.1
m1 = 0.355	0.987 ± 0.093
m1 = 0.3602	1.08 ± 0.11
m1 = 0.364	1.01 ± 0.096
m1 = 0.3691	1.09 ± 0.11
m1 = 0.3726	1.03 ± 0.099
m1 = 0.3774	1.11 ± 0.11
m1 = 0.3808	1.05 ± 0.1
m1 = 0.3856	1.13 ± 0.12
m1 = 0.3885	1.05 ± 0.1
m1 = 0.3933	1.15 ± 0.12
m1 = 0.396	1.07 ± 0.11
m1 = 0.4009	1.17 ± 0.12
m1 = 0.4032	1.09 ± 0.11
m1 = 0.4079	1.19 ± 0.12
m1 = 0.4098	1.09 ± 0.11
m1 = 0.4148	1.21 ± 0.13
m1 = 0.4165	1.11 ± 0.11
m1 = 0.4227	1.12 ± 0.11

CCC(=O)[O-].[NH3+]CCO [2-hydroxyethan-1-aminium propionate] + O
Settings	electrical conductivity
m1 = 0.01786	0.107 ± 0.007 S/m
m1 = 0.022	0.116 ± 0.013 S/m
m1 = 0.03491	0.198 ± 0.015 S/m
m1 = 0.04447	0.218 ± 0.018 S/m
m1 = 0.05416	0.312 ± 0.022 S/m
m1 = 0.06841	0.338 ± 0.023 S/m
m1 = 0.0728	0.4 ± 0.039 S/m
m1 = 0.09126	0.43 ± 0.031 S/m
m1 = 0.0929	0.485 ± 0.036 S/m
m1 = 0.1121	0.574 ± 0.044 S/m
m1 = 0.1137	0.521 ± 0.039 S/m
m1 = 0.1322	0.658 ± 0.053 S/m
m1 = 0.1373	0.612 ± 0.049 S/m
m1 = 0.1504	0.74 ± 0.062 S/m
m1 = 0.1594	0.695 ± 0.057 S/m
m1 = 0.1692	0.821 ± 0.072 S/m
m1 = 0.1822	0.78 ± 0.067 S/m
m1 = 0.188	0.897 ± 0.081 S/m
m1 = 0.2038	0.845 ± 0.12 S/m
m1 = 0.2067	0.982 ± 0.13 S/m
m1 = 0.2263	0.921 ± 0.084 S/m
m1 = 0.2328	1.08 ± 0.11 S/m
m1 = 0.2472	0.991 ± 0.094 S/m
m1 = 0.2532	1.16 ± 0.12 S/m
m1 = 0.268	1.06 ± 0.1 S/m
m1 = 0.2729	1.24 ± 0.13 S/m
m1 = 0.2877	1.12 ± 0.17 S/m
m1 = 0.2905	1.3 ± 0.19 S/m
m1 = 0.3074	1.18 S/m and 1.37 S/m
m1 = 0.3237	1.43 ± 0.16 S/m
m1 = 0.3251	1.24 ± 0.13 S/m
m1 = 0.3388	1.48 ± 0.17 S/m
m1 = 0.3427	1.29 ± 0.14 S/m
m1 = 0.3534	1.53 ± 0.18 S/m
m1 = 0.3594	1.34 ± 0.15 S/m
m1 = 0.3669	1.58 ± 0.19 S/m
m1 = 0.3755	1.39 ± 0.16 S/m
m1 = 0.3798	1.63 ± 0.2 S/m
m1 = 0.3905	1.43 ± 0.16 S/m
m1 = 0.3917	1.67 ± 0.21 S/m
m1 = 0.4032	1.71 ± 0.29 S/m
m1 = 0.4055	1.48 ± 0.17 S/m
m1 = 0.4138	1.74 ± 0.22 S/m
m1 = 0.4195	1.51 ± 0.18 S/m
m1 = 0.424	1.78 ± 0.23 S/m
m1 = 0.4334	1.55 ± 0.19 S/m
m1 = 0.4465	1.59 ± 0.19 S/m
m1 = 0.4591	1.62 ± 0.2 S/m
m1 = 0.4709	1.65 ± 0.2 S/m
m1 = 0.4825	1.67 ± 0.21 S/m
m1 = 0.5351	1.82 ± 0.24 S/m
m1 = 0.5473	1.85 ± 0.25 S/m
m1 = 0.5594	1.89 ± 0.26 S/m
m1 = 0.5705	1.93 ± 0.26 S/m
